{
  "source": "paper PMC2359919",
  "about": "“Molecular targeting of retinoic acid metabolism in neuroblastoma: the role of the CYP26 inhibitor R116010 in vitro and in vivo” (British Journal of Cancer, 2007)",
  "key": {"[1]": {"test_system": "SH-SY5Y, NGP, SH-EP and GIMEN cells", "assay": "Intracellular all-trans-4-oxo-RA levels in neuroblastoma cells, LC/MS", "format": "cell-based, human", "description": "(§1) SH-SY5Y, SH-EP (N- and S-type cells respectively derived from the parental line SK-N-SH), LAN6, IMR-32, NGP and GIMEN neuroblastoma cell lines were cultured routinely in RPMI 1640 medium containing fetal calf serum (10%) and L-glutamine (2 mM). Cells were grown at 37°C in a humidified incubator containing 5% CO2.\n(§2) 13-cis-Retinoic acid and ATRA were dissolved in DMSO and diluted in cell culture medium to obtain final concentrations of 0.1–10 μM. The final concentration of DMSO in all cases was <0.2%. All experiments were performed in dim light and tubes containing retinoids were wrapped in aluminium foil.\n(§3) Cell pellets obtained from retinoid incubations were re-suspended in 2 ml cell culture medium and disrupted by passing the samples several times through a syringe and hypodermic needle (25G × 1 inches, 0.5 mm × 25 mm; Terumo, Somerset, NJ, USA). Tumour and liver tissues were re-suspended in PBS and homogenised (T25 homogeniser, IKA Laboratories, Staufen, Germany). Retinoids were extracted as described previously ([Veal et al, 2002]; [Armstrong et al, 2005b]). Samples were reconstituted in 200 μl mobile phase A (n-hexane:dichloromethane:propan-2-ol, 400 : 1 : 0.27) and analysed by normal-phase HPLC as described previously ([Veal et al, 2002]). For LC/MS analysis, samples were reconstituted in 200 μl mobile phase A (50% acetonitrile, 50% (0.2%) acetic acid, v v^−1).\n(§4) Resolution of retinoids was performed with a Luna C18(2) column (3 μm, 50 mm × 2 mm) using a Perkin Elmer LC (Beaconsfield, UK) system, consisting of a vacuum degasser, two series 200 pumps, a thermostatically controlled series 200 autosampler and a Waters 2487 UV absorbance detector. Retinoic isomers and metabolites were separated by gradient reversed-phase chromatography. An injection volume of 20 μl with a flow rate of 0.2 ml min^−1 was used with mobile phase A (50% acetonitrile, 50% (0.2%) acetic acid, v v^−1) and mobile phase B (acetonitrile, 0.1% acetic acid, v v^−1). Linear gradients were employed between the specified times as follows: 0, 100% A; 5 min, 100% A; 15 min, 100% B; 20 min, 100% B; 23 min, 100% A; 35 min, 100% A. An Applied Biosystems (Warrington, UK) API-2000 LC/MS/MS triple Q (quadrupole) mass spectrometer with electrospray ionisation source, controlled by Analyst software, was operated in single quadrupole negative mode for the detection of compounds."}, "MYCN": {"test_system": "MYCN", "assay": "MYCN mRNA expression in MYCN-amplified NGP cells, real-time PCR", "format": "cell-based, human", "description": "as §1, §2\n(§5) RNA was reverse-transcribed using Promega's Reverse Transcription System according to the manufacturer's instructions, using random hexamer primers. Real-time PCR was performed on 20 ng cDNA using TaqMan gene expression products for human CYP26A1, CYP26B1, CRABPII, RARβ and MYCN in combination with the TaqMan Universal PCR master mix (Applied Biosystems, Warrington, UK). […] As internal standard, β-actin was measured simultaneously using the endogenous control assay provided by Applied Biosystems. […] Standard curves were generated from serial dilutions of cDNA prepared from cells treated with ATRA (1 μM) and the data were analysed using the GeneAmp Sequence Detection System software. CYP26C1 expression was analysed as described previously ([Taimi et al, 2004])."}, "RA metabolism": {"test_system": "RA metabolism", "assay": "Effect of R116010 on retinoid concentrations (plasma, liver, tumour) in an SH-SY5Y xenograft model, LC/MS", "format": "in vivo, CD-1 nude mice", "description": "(§6) All in vivo experiments were approved by the relevant institutional animal welfare committees, and performed according to national law. Female athymic nude mice (CD-1 nu/nu, Charles River) used for antitumour studies were maintained and handled in isolators, under specific pathogen-free conditions, at 24°C with a 12 h light, 12 h dark cycle. Tumours were generated by implantation of SH-SY5Y cells subcutaneously (s.c.) into one flank of CD-1 nude mice (1 × 10^7 cells per animal).\n(§7) Treatments began when the tumours were between 7 and 10 mm in length and breadth. Retinoids and R116010 were initially dissolved in DMSO before 10- or 20-fold dilutions in PBS, respectively. For pharmacokinetic studies, the animals were dosed with ATRA or 13cisRA (each 100 mg kg^−1) orally for 0.5, 2 and 6 h. For metabolism studies, animals were treated with R116010 orally at doses of 1.25 or 2.5 mg kg^−1 either immediately before the retinoid being studied, or up to three times (over 1–2 days) before dosing with the retinoid. At termination of experiments, animals were bled under terminal anaesthesia then killed by cervical dislocation. Plasma was immediately removed from the blood by centrifugation at 1000 g for 5 min and snap-frozen in liquid nitrogen in amber Eppendorfs. Tumour and liver samples were removed and snap-frozen, wrapped in foil, in liquid nitrogen.\nas §3, §4"}, "[2]": {"test_system": "mouse mammary carcinoma model", "design": "method as in Van Heusden et al, 2002", "details": "ref Van Heusden et al, 2002; cited from earlier work"}, "CYP26A1": {"test_system": "CYP26A1", "assay": "CYP26A1 expression in SH-SY5Y xenograft tumours", "format": "in vivo, CD-1 nude mice", "description": "as §6\nTreatments began when the tumours were between 7 and 10 mm in length and breadth. Retinoids and R116010 were initially dissolved in DMSO before 10- or 20-fold dilutions in PBS, respectively. For pharmacokinetic studies, the animals were dosed with ATRA or 13cisRA (each 100 mg kg^−1) orally for 0.5, 2 and 6 h. […]\nas §5, with “primers.” for “primers. Real-time PCR was performed on 20 ng cDNA using TaqMan gene expression products for human CYP26A1, CYP26B1, CRABPII, RARβ and MYCN in combination with the TaqMan Universal PCR master mix (Applied Biosystems, Warrington, UK).”"}, "[3]": {"assay": "Effect of R116010 on retinoid concentrations (plasma, liver, tumour) in an SH-SY5Y xenograft model, LC/MS", "format": "in vivo, CD-1 nude mice", "details": "female, CD-1 nu/nu (athymic nude), mouse, tumour (SH-SY5Y xenograft), oral; 13cisRA 100 mg kg^−1 alone; SH-SY5Y tumour; 6 h; read-out: Tumour 13cisRA levels, control animals", "description": "as §6, §7, §3, §4"}, "[4]": {"details": "13cisRA 100 mg kg^−1 with increasing doses of R116010, 6 h"}, "[5]": {"details": "ATRA-treated mice (100 mg kg^−1) with R116010, 6 h"}},
  "data": [
    {"smiles": "C[C@@H]([C@H](c1ccc(Nc2nc3ccccc3s2)cc1)n1ccnc1)N(C)C", "note": "[R116010]", "values": [
      {"measurement": "Decrease in AT-4-oxo-RA levels", "setting": "[1]; NGP cells, 10 μM 13cisRA with 10 μM R116010, 24 h", "result": 13.2, "unit": "fold"},
      {"measurement": "Reduction in intracellular AT-4-oxo-RA levels", "setting": "[1]; NGP cells, 10 μM ATRA with 10 μM R116010, 24 h", "result": 3.8, "unit": "fold"},
      {"measurement": "Effect on AT-4-oxo-RA levels", "setting": "[1]; SH-EP and GIMEN cells, 10 μM 13cisRA with 10 μM R116010, 24 h", "result": "no significant effect"},
      {"measurement": "Decrease in AT-4-oxo-RA levels", "setting": "[1]; SH-SY5Y cells, 10 μM 13cisRA with 10 μM R116010, 24 h", "result": 3.5, "unit": "fold"},
      {"measurement": "Reduction in intracellular AT-4-oxo-RA levels", "setting": "[1]; SH-SY5Y cells, 10 μM ATRA with 10 μM R116010, 24 h", "result": 3, "unit": "fold"},
      {"measurement": "Effect on intracellular AT-4-oxo-RA levels", "setting": "[1]; low CYP26-expressing cell lines (SH-EP, GIMEN), 10 μM ATRA with 10 μM R116010, 24 h", "result": "no significant effect"},
      {"measurement": "Effect on downregulation of MYCN expression by ATRA or 13cisRA", "setting": "MYCN; ATRA or 13cisRA 0.1 μM with R116010 1 μM vs retinoid alone", "result": "enhanced"},
      {"measurement": "Effect on MYCN expression, R116010 alone", "setting": "MYCN; R116010 alone (1 μM)", "result": "small but significant increase"},
      {"measurement": "Increase in 13cisRA plasma concentration", "setting": "RA metabolism; 13cisRA 100 mg kg^−1 after four doses of R116010 at 2.5 mg kg^−1 vs 13cisRA alone, 6 h", "result": "≤ 4.6", "unit": "fold"},
      {"measurement": "Effect on 13cisRA plasma concentrations", "setting": "RA metabolism; 13cisRA 100 mg kg^−1 with increasing doses of R116010 (1.25; 2.5 mg kg^−1 x1, x2, x4) vs retinoid alone, 6 h", "result": "significant increases"},
      {"measurement": "Effect on plasma 13cis-4-oxo-RA concentrations", "setting": "RA metabolism; [4]", "result": "no significant dose-dependent effect"},
      {"measurement": "Effect on plasma AT-4-oxo-RA concentrations", "setting": "RA metabolism; [4]", "result": "apparent linear increase"},
      {"measurement": "Effect on ATRA plasma concentrations", "setting": "RA metabolism; 13cisRA 100 mg kg^−1 with increasing doses of R116010 vs retinoid alone, 6 h", "result": "significant increases"},
      {"measurement": "Effect on liver ATRA levels", "setting": "RA metabolism; 13cisRA 100 mg kg^−1 with one and two doses of 2.5 mg kg^−1 R116010, 6 h", "result": "increased slightly"},
      {"measurement": "Tumour 13cisRA levels with R116010", "setting": "RA metabolism; 13cisRA 100 mg kg^−1 with single dose R116010 at 2.5 mg kg^−1, SH-SY5Y tumour, 6 h", "result": "0.59 ± 0.07", "unit": "µg/g"},
      {"measurement": "Effect on levels of the 4-oxo-RA metabolites in tumour", "setting": "RA metabolism; 13cisRA or ATRA in combination with R116010 vs retinoid alone", "result": "no significant differences"},
      {"measurement": "Effect on levels of ATRA in tumour samples", "setting": "RA metabolism; 13cisRA-treated mice with R116010", "result": "not significantly affected"},
      {"measurement": "Increase in plasma ATRA concentrations", "setting": "RA metabolism; ATRA 100 mg kg^−1 after four doses of R116010 at 2.5 mg kg^−1 vs ATRA alone, 6 h", "result": "≤ 2.3", "unit": "fold"},
      {"measurement": "Effect on liver 13cisRA or ATRA levels", "setting": "RA metabolism; ATRA 100 mg kg^−1 in combination with R116010, 6 h", "result": "No significant increases"},
      {"measurement": "Effect on liver 13cis-4-oxo-RA and AT-4-oxo-RA levels", "setting": "RA metabolism; ATRA 100 mg kg^−1 in combination with R116010 or after R116010 pretreatment, 6 h", "result": "significant decreases"},
      {"measurement": "Effect on plasma 13cisRA concentrations", "setting": "RA metabolism; [5]", "result": "marginal"},
      {"measurement": "Effect on plasma AT-4-oxo-RA levels", "setting": "RA metabolism; [5]", "result": "no effect"},
      {"measurement": "Effect on liver 13cisRA levels", "setting": "RA metabolism; R116010 before 13cisRA 100 mg kg^−1, 6 h", "result": "not associated with 13cisRA levels being different from control"},
      {"measurement": "Effect on liver 13cis-4-oxo-RA and AT-4-oxo-RA concentrations", "setting": "RA metabolism; R116010 before 13cisRA 100 mg kg^−1, all conditions, 6 h", "result": "significantly lower levels"},
      {"measurement": "Effect on levels of retinoids in tumour tissue", "setting": "RA metabolism; R116010 before ATRA", "result": "no significant differences"},
      {"measurement": "Antitumour activity as a single agent", "setting": "[2]", "result": "exhibits antitumour activity"},
      {"measurement": "Increase in CYP26A1 expression in tumours", "setting": "CYP26A1; 13cisRA with two doses of R116010 at 2.5 mg kg^−1 vs 13cisRA alone, individual animals, data not shown", "result": "4- to 20 fold"},
      {"measurement": "Effect on CYP26A1 expression in tumours", "setting": "CYP26A1; R116010 prior ATRA", "result": "not significantly different"}
    ]},
    {"smiles": "CC1=C(/C=C/C(C)=C/C=C/C(C)=C\\C(=O)O)C(C)(C)CCC1", "note": "[13cisRA, 13-cis-retinoic acid]", "values": [
      {"measurement": "concentration at 6 h", "setting": "[3]", "result": "220 ± 40", "unit": "ng/g"}
    ]}
  ]
}
